In patent US20250281424A1 (New York Blood Center, Inc, priority 2020, published 2025):
“Also recorded” adds a separate entry of the source.

Legend:
[1] = target: T1, human PF4 (Homo sapiens, UniProt P02776); test: Inhibition of PF4 tetramer formation (BS3 cross-linking, SDS-PAGE); assay type: biochemical; details: for IC50: read-out: IC50 of PF4 tetramer formation inhibition; for inhibition at 5 µM: 5 μM inhibitor; for inhibition at 5 µM / inhibition at 10 µM / inhibition at 1 µM / inhibition at 3 µM: read-out: % inhibition of PF4 tetramer formation at single concentration of inhibitor; for inhibition at 10 µM: 10 μM inhibitor (column A); for inhibition at 1 µM: 1 μM inhibitor; for inhibition at 3 µM: 3 μM inhibitor (column A)
T1 construct: PF4 is a 70 amino acid, lysine-rich 7.8 kDa platelet-specific protein; made in house; host or cells: Escherichia coli BL21DE3 pLysS (pT7-7) and/or Drosophila S2 cells
T1 sequence (P02776 32-101): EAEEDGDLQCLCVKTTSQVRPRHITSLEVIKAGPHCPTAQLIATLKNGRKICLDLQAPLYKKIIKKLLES
Method in brief: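 Recombinant human wild-type PF4 (E. coli-expressed, heparin-purified), 10 μg/ml in PBS, incubated with compound 15 min at 37° C or 60 min at room temperature, then cross-linked with 0.2 mM BS3 for 30 min at room temperature. Reducing 12% SDS-PAGE; bands quantified as % tetramer, trimer, dimer, monomer versus compound-free control.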

[2] = system: human platelets; test: PF4-KKO induced platelet activation, P-selectin, human platelets; assay type: cell-based; details: human platelet activation assays; 20 μM and 40 μM (FIGS. 8 and 9)
[3] = system: FcγRIIA transgenic murine platelets; test: PF4-KKO induced platelet activation, P-selectin, FcγRIIA transgenic murine platelets; assay type: cell-based, mouse; details: for normalized P-selectin levels: FIG. 22; for preventing P-selectin expression: FcγRIIA transgenic murine platelets, 50 μM compound, 37.5 μg/ml PF4, 50 μg/ml KKO (FIGS. 14-21)
Experimental: Whole blood was diluted with 1× Tyrode buffer (5 mM N-2-hydroxyethylpiperazine-N′-2-ethanesulfonic acid, 0.1% BSA, 134 mM NaCl, 0.3 mM NaH2PO4, 3 mM KCl, 2 mM MgCl2, 12 mM NaHCO3, 5 mM glucose) with 0.02 U/ml apyrase and 1 μM PGE1 and centrifuged at 100 g for 10 min. Platelet rich plasma (PRP) was carefully removed and centrifuged at 1000 g for 5 min. Platelet pellet was resuspended in Tyrode buffer with 0.02 U/ml apyrase at 2×10^8/ml concentration at 37° C. PF4 antagonists are diluted in Tyrode buffer, and are incubated with 10 μg/ml human PF4 purified protein at room temperature for 30 min. The PF4-drug complex is then incubated with 1×10^8/ml platelets with 1 mM CaCl2, 0.1% BSA at 37° C. for 10 min. 40 μg/ml KKO and 10 μg/ml anti-CD62P (P-selectin) antibodies are added into the reaction. One milliliter ice-cold PBS is added to each reaction after 5 min of incubation. Labelled platelets are then analyzed by a BD Accuri C6 flow cytometer. The results are represented by both the mean fluorescence intensity and by the percentage of positive platelets.
37.5 μg/ml PF4 with/without 50 μM of the exemplified compound incubated with 3×10^7/ml platelets; 50 μg/ml KKO.

[4] = Mouse microsome stability; assay type: in vitro ADME; details: for half-life at 0.5 μM: Mouse microsomes, compound conc = 0.5 μM, n = 1, read-out: Mouse microsome stability Half life t1/2
Text: (§1) Certain exemplified compounds were examined for ADMET (absorption, distribution, metabolism, excretion and toxicity) profiling using conventional assays with the results shown in the Tables 3A-3C below.

[5] = Human microsome stability; assay type: in vitro ADME; details: for half-life at 0.5 μM: read-out: Human microsome stability Half life t1/2
Text: as §1

[6] = Human microsomes, compound conc = 0.5 μM, n = 1

Structure (SMILES)	IC50 [1] [µM]	PF4-KKO induced platelet activation using P-selectin as a marker [2]	normalized P-selectin levels [3]	preventing P-selectin expression [3]	inhibition at 5 µM [1] [%]	inhibition at 10 µM [1] [%]	other results
O=C(c1ccc2c(c1)C(=O)C(C(=O)Nc1ccc3c(c1)OCCO3)C2=O)c1ccc2c(c1)C(=O)C(C(=O)Nc1ccc3c(c1)OCCO3)C2=O (stereo not drawn) [Example 29, 5,5′-carbonylbis(1,3-dioxo-indan-2-carboxylic acid (n-(2,3-dihydro-benzo[1,4]dioxin-6-yl))-amide)]	3.02	inhibitory	modulate the activity of normalized P-selectin; also recorded: inhibition	efficacy			
Cc1ncc2n1-c1ccc(Cl)cc1C(c1ccccc1F)=NC2 [Midazolam, midazolam, reference compound]							half-life at 0.5 μM [4]: 0.0883 h; Human microsome stability Half life t1/2 [5, 6]: 4 min
O=C(O)CCNC(=O)C1C(=O)c2ccc(C(=O)c3ccc4c(c3)C(=O)C(C(=O)NCCC(=O)O)C4=O)cc2C1=O (stereo not drawn) [Example 32, 5,5′-carbonylbis(3-[(1,3-dioxo-indane-2-carbonyl)-amino]-propionic acid)]	2.99	inhibitory	modulate the activity of normalized P-selectin; also recorded: inhibition	efficacy	86	91	half-life at 0.5 μM [4]: > 3 h; half-life at 0.5 μM [5, 6]: 0.9 h
COc1cccc(NC(=O)C2C(=O)c3ccc(S(=O)(=O)c4ccc5c(c4)C(=O)C(C(=O)Nc4cccc(OC)c4)C5=O)cc3C2=O)c1 (stereo not drawn) [Example 36, 5,5′-sulphonylbis(1,3-dioxo-indan-2-carboxylic acid (3-methoxyphenyl)-amide)]	1.19		modulate the activity of normalized P-selectin; also recorded: inhibition	efficacy	65	70	
CC(=O)C1C(=O)c2ccc(C(c3ccc4c(c3)C(=O)C(C(C)=O)C4=O)(C(F)(F)F)C(F)(F)F)cc2C1=O (stereo not drawn) [Example 11, 2-acetyl-5-[(2-acetyl-2,3-dihydro-1,3dioxo-1h-inden-5-yl)-1,1,1,3,3,3-hexafluoropropan-2-yl]-2,3-dihydro-1,3-dioxo-1h-indene]	1.45	inhibitory					half-life at 0.5 μM [4]: 1.75 h; half-life at 0.5 μM [5, 6]: > 3 h
O=C(NCCc1ccccc1)C1C(=O)c2ccc(S(=O)(=O)c3ccc4c(c3)C(=O)C(C(=O)NCCc3ccccc3)C4=O)cc2C1=O (stereo not drawn) [Example 33, 5,5′-sulphonylbis(1,3-dioxo-indan-2-carboxylic acid (2-phenylethyl)-amide)]	1.6	inhibitory	inhibition	efficacy	67	76	
O=C(c1ccc2c(c1)C(=O)C(C(=O)NCCc1ccccc1)C2=O)c1ccc2c(c1)C(=O)C(C(=O)NCCc1ccccc1)C2=O (stereo not drawn) [Example 20, 5,5′-carbonylbis(1,3-dioxo-indan-2-carboxylic acid (2-phenylethyl)-amide)]	5.75				83	92	half-life at 0.5 μM [4]: > 2.42 h; intrinsic clearance in mouse microsome assay ([4]; mouse microsomes): low intrinsic clearance; stability in mouse microsome assay ([4]; mouse microsomes): excellent stability; half-life at 0.5 μM [5, 6]: > 2.42 h; microsomal CLint at 0.5 μM ([5]; Human microsomes, compound conc = 0.5 μM, n = 1, read-out: Human microsome stability Intrinsic Clearance Clint (ml/min/mg protein)): < 9.5 mL/min/mg; intrinsic clearance in human microsome assay ([5]; human microsomes): low intrinsic clearance; stability in human microsome assay ([5]; human microsomes): excellent stability
O=C(c1ccc2c(c1)C(=O)C(C(=O)NCCc1ccc3c(c1)OCO3)C2=O)c1ccc2c(c1)C(=O)C(C(=O)NCCc1ccc3c(c1)OCO3)C2=O (stereo not drawn) [Example 18, 5,5′-carbonylbis(1,3-dioxo-indan-2-carboxylic acid (2-benzo[1,3]dioxol-5-yl-ethyl)-amide)]	1.81	inhibitory			65	75	
COc1ccc(NC(=O)C2C(=O)c3ccc(C(=O)c4ccc5c(c4)C(=O)C(C(=O)Nc4ccc(OC)cc4)C5=O)cc3C2=O)cc1 (stereo not drawn) [Example 31, 5,5′-carbonylbis(1,3-dioxo-indan-2-carboxylic acid (4-methoxyphenyl)-amide)]	1.74	inhibitory	modulate the activity of normalized P-selectin; also recorded: inhibition	efficacy			
CN(CC(=O)C1C(=O)c2ccc(Oc3ccc4c(c3)C(=O)C(C(=O)CN(C)C(=O)OC(C)(C)C)C4=O)cc2C1=O)C(=O)OC(C)(C)C (stereo not drawn) [Example 263, tert-butyl N-[2-(5-{[2-(2-{[(tert-butoxy)carbonyl](methyl)amino}acetyl)-1,3-dioxo-2,3-dihydro-1H-inden-5-yl]oxy}-1,3-dioxo-2,3-dihydro-1H-inden-2-yl)-2-oxoethyl]-N-methylcarbamate]	2.07						inhibition at 1 µM [1]: 72%; inhibition at 3 µM [1]: 69%
CC(C)(C)OC(=O)N1CCC[C@H]1C(=O)C1C(=O)c2ccc(C(c3ccc4c(c3)C(=O)C(C(=O)[C@@H]3CCCN3C(=O)OC(C)(C)C)C4=O)(C(F)(F)F)C(F)(F)F)cc2C1=O (stereo partly drawn) [Example 195, tert-butyl (2S)-2-[5-(2-{2-[(2S)-1-[(tert-butoxy)carbonyl]pyrrolidine-2-carbonyl]-1,3-dioxo-2,3-dihydro-1H-inden-5-yl}-1,1,1,3,3,3-hexafluoropropan-2-yl)-1,3-dioxo-2,3-dihydro-1H-indene-2-carbonyl]pyrrolidine-1-carboxylate]	4						
CC(=O)C1C(=O)c2ccc(N(C)S(=O)(=O)c3ccc4c(c3)C(=O)C(C(C)=O)C4=O)cc2C1=O (stereo not drawn) [Example 314, -acetyl-N-(2-acetyl-1,3-dioxo-2,3-dihydro-1H-inden-5-yl)-N-methyl-1,3-dioxo-2,3-dihydro-1H-indene-5-sulfonamide]							inhibition at 1 µM [1]: 9%; inhibition at 3 µM [1]: 28%
COc1ccccc1NC(=O)C1C(=O)c2ccc(S(=O)(=O)c3ccc4c(c3)C(=O)C(C(=O)Nc3ccccc3OC)C4=O)cc2C1=O (stereo not drawn) [Example 69, 5,5′-sulfonylbis(n-(2-methoxyphenyl)-1,3-dioxo-2,3-dihydro-1h-indene-2-carboxamide)]	1.05				60	85	
O=C(c1ccc2c(c1)C(=O)C(C(=O)C1CC1)C2=O)c1ccc2c(c1)C(=O)C(C(=O)C1CC1)C2=O (stereo not drawn) [Example 401]							inhibition at 1 µM [1]: 22%; inhibition at 3 µM [1]: 23%
CC(C)(C)OC(=O)N1CCCC[C@H]1C(=O)C1C(=O)c2ccc(-c3ccc4c(c3)C(=O)C(C(=O)[C@@H]3CCCCN3C(=O)OC(C)(C)C)C4=O)cc2C1=O (stereo partly drawn) [Example 212, tert-butyl (2S)-2-{2′-[(2S)-1-[(tert-butoxy)carbonyl]piperidine-2-carbonyl]-1,1′,3,3′-tetraoxo-1H,1′H,2H,2′H,3H,3′H-[5,5′-biindene]-2-carbonyl}piperidine-1-carboxylate]	5.5				91	88	
CC(C)CCCC(=O)C1C(=O)c2ccc(S(=O)(=O)c3ccc4c(c3)C(=O)C(C(=O)CCCC(C)C)C4=O)cc2C1=O (stereo not drawn) [Example 171, 2-(5-methylhexanoyl)-5-{[2-(5-methylhexanoyl)-1,3-dioxo-2,3-dihydro-1H-inden-5-yl]sulfonyl}-2,3-dihydro-1H-indene-1,3-dione]					62	75	
